In ChEMBL document CHEMBL1201862, “PubChem BioAssay data set” (2004):
Calls of active or inactive are those of the source.

Assays:
H9c2 = assay: cells; assay type: functional, cell-based; details: Rattus norvegicus, H9c2, Myocardium;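 further: confirmatory concentration-response retest of ultra-high-throughput screening hits for modulation of myocardial damage; cell death induced by hydrogen peroxide oxidative stress; compound pretreatment for 60 min then peroxide exposure for 2 h; potency is for protecting the cells against peroxide damage rather than for killing them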
H4 = assay: Luminescence Cell-Based Dose Response HTS to Identify Activators of 5'UTR Stem-Loop Driven Prion Protein mRNA Translation in H4 Neuroglioblastoma Cells. [Related pubchem assays: 1829 (Project Summary), 1814 (Primary HTS)]; assay type: functional; details: Homo sapiens
[1] = Luminescence Cell-Based Dose Confirmation HTS to Identify Activators of 5'UTR Stem-Loop Driven Alpha-Synuclein mRNA Translation in H4 Neuroglioblastoma Cells. [Related pubchem assays: 1829 (Project Summary), 1814 (Primary HTS)]; assay type: functional
[2] = Luminescence Cell-Based Dose Response HTS to Identify Activators of Luciferase Translation or Activity in H4 […] Cells. [Related pubchem assays: 1829 (Project Summary), 1814 (Primary HTS)]; assay type: functional
Cytochrome P450 3A4 = Cytochrome P450 3A4 (Homo sapiens, UniProt P08684); details: Potency;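 further: confirmatory qHTS run detecting inhibitors and substrates of CYP3A4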
[3] = biological target: T1, Polyadenylate-binding protein 1 (Homo sapiens, UniProt P11940); assay: MLLE binding blockers, Cy5 peptide tracer – biochemical, fluorescence polarization, Cy5-PAM2 peptide, secondary, miRNA deadenylation inhibitor project, dose response (AID 602260); assay type: functional; details: read-out: IC50_Mean
[4] = biological target: T1, Polyadenylate-binding protein 1; assay: MLLE domain peptide-binding blockers, IC50 – biochemical, fluorescence polarization, FITC-PAM2 peptide, dose response (AID 602259); assay type: functional; details: read-out: IC50_Mean
[5] = intracellular Trypanosoma cruzi inhibitors in host cells – cell-based, plate reader, cherry-pick samples, set 3, dose response (AID 651818); assay type: functional;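 further: compounds incubated with infected cells for about four days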
[6] = NIH3T3 cell viability loss – ATP luminescence, mouse fibroblasts, counter-screen, dose response (AID 2010); assay type: functional, cell-based;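 further: cells exposed to compound for about 90 hours before reading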
[7] = Trypanosoma cruzi growth suppression in host cells – NIH3T3 host cells, beta-gal luminescence, confirmation (AID 2044); assay type: functional, cell-based;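 further: intracellular parasites grown in NIH/3T3 mouse fibroblasts as host cells; luminescent beta-galactosidase reporter signal from transgenic T. cruzi replicating inside host cells; inhibitors lower the luminescence signal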
Streptokinase A = biological target: T2, Streptokinase A (Streptococcus pyogenes serotype M1, UniProt P10520); assay: viability-normalized secreted streptokinase activity reduction – plasminogen activation absorbance, OD405, dose response (AID 1914); assay type: functional, Streptococcus pyogenes M1 GAS;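 further: secreted streptokinase activity via plasminogen activation per viability signal from cell pellet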
T2 sequence (P10520 whole entry): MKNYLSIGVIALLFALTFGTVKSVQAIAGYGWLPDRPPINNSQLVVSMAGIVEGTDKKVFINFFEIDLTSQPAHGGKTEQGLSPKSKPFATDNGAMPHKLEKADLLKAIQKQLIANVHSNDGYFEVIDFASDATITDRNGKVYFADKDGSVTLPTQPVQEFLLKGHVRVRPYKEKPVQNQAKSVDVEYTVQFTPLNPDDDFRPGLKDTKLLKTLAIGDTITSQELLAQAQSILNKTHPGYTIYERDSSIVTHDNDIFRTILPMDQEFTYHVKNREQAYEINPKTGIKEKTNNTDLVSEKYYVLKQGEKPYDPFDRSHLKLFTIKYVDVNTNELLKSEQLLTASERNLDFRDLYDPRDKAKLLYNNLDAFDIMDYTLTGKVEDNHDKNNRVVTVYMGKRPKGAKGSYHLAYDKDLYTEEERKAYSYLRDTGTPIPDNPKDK

[8] = tested on: Streptococcus sp. 'group A'; assay: Streptococcus pyogenes SK(-)GAS viability under kanamycin – luminescence, BacTiterGlo, confirmation, counter-screen for streptokinase expression inhibitor project, dose response (AID 1900); assay type: functional, organism-based
Streptococcus = assay: GAS UMAA2166 growth inhibition – luminescence, BacTiterGlo, counter-screen for streptokinase expression inhibitor project, dose response (AID 1915); assay type: functional, organism-based;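 further: potency for reduction of bacterial viability or growth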
INS1 = assay: INS-1E survival protection against cytokine death – cell-based, luminescence, retest, dose response (AID 449756); assay type: functional; details: Rattus norvegicus;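 further: cell death triggered by IL-1 beta plus TNF-alpha plus IFN-gamma mixture; protective hits raise ATP signal compared with cytokine alone wells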

T1 sequence (P11940 whole entry, the tested form may be a part): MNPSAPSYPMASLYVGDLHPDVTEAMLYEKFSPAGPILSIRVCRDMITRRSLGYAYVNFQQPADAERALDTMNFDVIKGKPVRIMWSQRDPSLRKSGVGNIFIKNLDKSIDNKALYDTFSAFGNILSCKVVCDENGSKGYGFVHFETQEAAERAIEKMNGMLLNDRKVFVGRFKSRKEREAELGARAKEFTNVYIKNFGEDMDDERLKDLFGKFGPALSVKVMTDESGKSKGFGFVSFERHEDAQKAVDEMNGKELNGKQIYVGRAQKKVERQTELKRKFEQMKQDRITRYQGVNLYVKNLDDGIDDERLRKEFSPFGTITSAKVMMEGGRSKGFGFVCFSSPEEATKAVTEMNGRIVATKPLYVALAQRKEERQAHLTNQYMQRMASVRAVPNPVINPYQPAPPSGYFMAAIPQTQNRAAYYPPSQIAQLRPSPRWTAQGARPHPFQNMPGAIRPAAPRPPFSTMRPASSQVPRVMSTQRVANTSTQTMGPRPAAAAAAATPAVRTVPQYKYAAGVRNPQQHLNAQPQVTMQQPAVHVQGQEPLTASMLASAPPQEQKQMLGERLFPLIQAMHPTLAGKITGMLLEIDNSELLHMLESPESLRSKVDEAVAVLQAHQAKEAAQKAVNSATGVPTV
Chain of Cytochrome P450 3A4 (P08684 whole entry): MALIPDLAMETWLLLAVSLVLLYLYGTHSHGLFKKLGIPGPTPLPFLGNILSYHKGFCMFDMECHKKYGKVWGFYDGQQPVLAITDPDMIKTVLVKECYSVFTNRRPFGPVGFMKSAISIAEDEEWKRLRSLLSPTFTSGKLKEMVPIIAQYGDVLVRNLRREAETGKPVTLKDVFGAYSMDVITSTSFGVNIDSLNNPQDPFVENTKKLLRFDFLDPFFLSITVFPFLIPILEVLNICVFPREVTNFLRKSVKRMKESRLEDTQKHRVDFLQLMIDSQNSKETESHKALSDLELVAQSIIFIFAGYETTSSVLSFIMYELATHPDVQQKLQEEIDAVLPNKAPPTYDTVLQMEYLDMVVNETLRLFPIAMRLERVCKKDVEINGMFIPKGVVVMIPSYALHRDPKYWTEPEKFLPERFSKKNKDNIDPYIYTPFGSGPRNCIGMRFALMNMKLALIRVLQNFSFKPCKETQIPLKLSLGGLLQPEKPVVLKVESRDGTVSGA

With `Cc1nc2ccccc2c(=O)[nH]1` the IC50 (H9c2) was > 79 µM (inactive).
For `Cc1cc(Nc2nc3ccccc3nc2Cl)n(-c2ccccc2)n1`, the EC50 (H4) was > 120 µM (not active), the EC50 [1] was > 120 µM (not active) and the EC50 [2] was > 120 µM (not active).
For `CC(Cc1cccs1)NC(=O)NC1CCCCC1` (stereo unspecified), the EC50 (H4) was 39.8 µM (active), the EC50 [1] was > 60 µM (not active) and the EC50 [2] was 68.9 µM (active).
With `BrC1C(Br)C(Br)C(Br)C(Br)C1Br` (stereo unspecified) the AC50 (Cytochrome P450 3A4) was 15.8 µM (inconclusive).
In the case of `CN(C)S(=O)(=O)c1ccc(NC(=O)COC(=O)Cn2[nH]c(=O)c3ccccc3c2=O)cc1`, the IC50 (H9c2) is reported as > 79 µM (inactive).
For `CCc1nnc2c3cnn(-c4ccccc4)c3ncn12`, the EC50 (H4) was > 120 µM (not active), the EC50 [1] was 5.12 µM (active) and the EC50 [2] was 113 µM (active).
In the case of `CCCCC(=O)Nc1cc(C)c2c(=O)oc3ccccc3c2n1`, the IC50 (H9c2) is reported as > 79 µM (inactive).
For `Cc1nc(/N=N\c2cc(S(=O)(=O)O)c3cc([N+](=O)[O-])cc(S(=O)(=O)O)c3c2)c(COP(=O)(O)O)c(C=O)c1O`, the AC50 (Cytochrome P450 3A4) was 15.8 µM (inconclusive).
With `COc1ccc(-c2csc(NC(=O)CSc3n[nH]c(N)n3)n2)cc1` the IC50 [3] was > 66 µM (inactive) and the IC50 [4] was > 66 µM (inactive).
In the case of `COC(=O)c1ccc(C23CC4(C2)[C@H](CN(C)[C@@H]4c2ccccc2)C3c2ccccc2)cc1` (stereo partly specified), the AC50 (Cytochrome P450 3A4) is reported as 12.6 µM (inconclusive).
In the case of `COc1ccc(-n2ccnc(SCC(=O)NC3CCCC3)c2=O)cc1OC`, the IC50 [3] is reported as > 66 µM (inactive) and the IC50 [4] is reported as > 66 µM (inactive).
With `CCCc1cc(C(=O)NCC(C)C)no1` the EC50 [1] was 14.8 µM (active) and the EC50 [2] was 22.9 µM (active).
In the case of `Cc1ccc2[nH]c(SCc3nc(O)c4ccccc4n3)nc2c1`, the IC50 (H9c2) is reported as > 79 µM (inactive).
With `Cc1ccc(S(=O)(=O)N(C)C[C@H]2Oc3c(NC(=O)CCCCCC(=O)Nc4ccccc4N)cccc3C(=O)N([C@H](C)CO)C[C@@H]2C)cc1` the AC50 [5] was 1.42 µM (active).
With `Cc1c(OCC(=O)NCCN2CCOCC2)ccc2c1oc(=O)c1ccccc12` the IC50 (H9c2) was > 79 µM (inactive).
For `Cc1cccc(OCCn2c(NC(=O)c3ccco3)nc3ccccc32)c1`, the EC50 [6] was 29.8 µM (active), the EC50 [7] was 1.69 µM (active) and the EC50 (Streptokinase A) was > 150 µM (not active). The IC50 (H9c2) was 11 µM (active), the EC50 [8] was 4.74 µM (active) and the EC50 (Streptococcus) was 7.32 µM (active).
In the case of `COC(=O)c1cc2ccccn2c2c(C(=O)OC)c(C(=O)OC)cc1-2`, the IC50 (H9c2) is reported as > 79 µM (inactive).
With `C[C@@H]1CN([C@@H](C)CO)C(=O)c2cccc(N(C)C)c2O[C@@H]1CN(C)Cc1ccc(Oc2ccccc2)cc1` the AC50 [5] was 6.65 µM (active).
With `COc1ccc2cc(-c3[nH]ncc3CN3CCCCO3)ccc2c1` the EC50 (H4) was > 60 µM (not active), the EC50 [1] was > 120 µM (not active) and the EC50 [2] was 25 µM (active).
For `Cn1nc(C(=O)Nc2nc(-c3ccccn3)cs2)c2ccccc2c1=O`, the IC50 (H9c2) was > 79 µM (inactive).
For `C[C@@H]1CN([C@@H](C)CO)C(=O)c2cccc(NC(=O)CCCCCC(=O)Nc3ccccc3N)c2O[C@@H]1CN(C)Cc1ccc(Oc2ccccc2)cc1`, the AC50 [5] was 2.17 µM (active).
With `N#Cc1ccc(C23CC4(C2)[C@H](CN(Cc2ccc(C(F)(F)F)cc2)[C@@H]4c2ccccc2)C3c2ccccc2)cc1` (stereo partly specified) the AC50 (Cytochrome P450 3A4) was 25.1 µM (inconclusive).
For `CCCCCCCCCc1ccc(O)cc1` [4-NONYLPHENOL], the AC50 (Cytochrome P450 3A4) was 31.6 µM (inconclusive).
With `COC(c1ccccc1)C(C)C(OC)C(C)C(OC)C(C)C(C)=O` (stereo unspecified) the AC50 (Cytochrome P450 3A4) was 3.98 µM (inconclusive).
In the case of `Cc1cc(NS(=O)(=O)c2ccc(NC(=S)NC(=O)c3ccc(Br)cc3)cc2)no1`, the IC50 [3] is reported as > 66 µM (inactive) and the IC50 [4] is reported as > 66 µM (inactive).
In the case of `Cc1cc(C2(c3cc(C)c(O)cc3C)OS(=O)(=O)c3ccccc32)c(C)cc1O`, the AC50 (Cytochrome P450 3A4) is reported as 7.94 µM (inconclusive).
With `CCC1OC(=O)C(C)[C@@H](O[C@H]2C[C@@](C)(OC)C(O)C(C)O2)C(C)[C@@H](O[C@@H]2OC(C)CC(N(C)C)C2O)[C@@](C)(O)CC(C)C(=O)[C@@H](C)C(O)[C@]1(C)O` (stereo partly specified) the AC50 (Cytochrome P450 3A4) was 31.6 µM (inconclusive).
With `C=C1CC[C@@H]2O[C@@]2(C)CC[C@H]2[C@H]1CC2(C)C` the AC50 (Cytochrome P450 3A4) was 39.8 µM (inconclusive).
For `O=C(NC(=S)NC1CCSC1=O)c1cccc([N+](=O)[O-])c1` (stereo unspecified), the IC50 [3] was > 66 µM (inactive) and the IC50 [4] was > 66 µM (inactive).
With `CC(=O)Nc1ccc(SCC(=O)Nc2ccccc2Oc2ccccc2)cc1` the IC50 [3] was > 66 µM (inactive) and the IC50 [4] was > 66 µM (inactive).
In the case of `CCOC(=O)CC1=C(C(=O)OCC)C(c2ccc(C)o2)C(C#N)=C(N)O1` (stereo unspecified), the IC50 [3] is reported as > 66 µM (inactive) and the IC50 [4] is reported as 32 µM (inactive).
With `COc1cc(C=O)c([N+](=O)[O-])cc1OC` the AC50 (Cytochrome P450 3A4) was 25.1 µM (inconclusive).
With `Cn1c(-c2ccc(F)cc2)cnc1SCC(=O)Nc1ccccc1N1CCOCC1` the EC50 (H4) was 0.244 µM (active).
In the case of `CC(C)CCn1cc[n+](C2=C([N-]S(=O)(=O)c3ccccc3)C(=O)c3ccccc3C2=O)c1`, the AC50 (INS1) is reported as 4.76 µM (active).
With `C=C1CCC(=O)C(C)CCC2C1CC2(C)C` (stereo unspecified) [DIHYDROCARYOPHYLLEN-5-ONE] the AC50 (Cytochrome P450 3A4) was 25.1 µM (inconclusive).
For `Cc1cc(Nc2nc3ccccc3nc2Cl)n(-c2ccc([N+](=O)[O-])cc2)n1`, the EC50 [6] was > 60 µM (not active), the EC50 [7] was 2.24 µM (active) and the AC50 (INS1) was 8.83 µM (active).
With `O=C(CSc1nc(O)c(Cc2ccccc2)c(O)n1)c1ccccc1` the EC50 (H4) was 14.4 µM (active), the EC50 [1] was 14.7 µM (active) and the EC50 [2] was > 120 µM (not active).
In the case of `Cc1ccc(NC(=O)CN2C(=O)S/C(=C/c3ccncc3)C2=O)cc1`, the IC50 [3] is reported as > 66 µM (inactive) and the IC50 [4] is reported as > 66 µM (inactive).
With `Cc1ccc(-c2nnc(O)c3ccccc23)cc1N` the IC50 (H9c2) was 34.5 µM (inactive).
For `C[C@@H]1CN([C@@H](C)CO)C(=O)c2cccc(NC(=O)CCCCCC(=O)Nc3ccccc3N)c2O[C@H]1CN(C)Cc1ccc(Cl)c(Cl)c1`, the AC50 [5] was 3.06 µM (active).
In the case of `Cc1ccc(S(=O)(=O)Nc2ccc3c(c2)CC(=O)N([C@H](C)CO)C[C@@H](C)[C@@H](CN(C)Cc2ccc(C(=O)Nc4ccccc4N)cc2)O3)cc1`, the AC50 [5] is reported as 3.25 µM (active).
With `COCCNC(=O)Cc1c(C)c2c(cc(C)c3c(C(C)(C)C)coc32)oc1=O` the EC50 (H4) was > 120 µM (not active), the EC50 [1] was > 120 µM (not active) and the EC50 [2] was 10.1 µM (active).
For `C[C@@H]1CN([C@@H](C)CO)C(=O)c2cccc(NC(=O)Nc3ccccc3)c2O[C@@H]1CN(C)S(=O)(=O)c1cccs1`, the AC50 [5] was 14.8 µM (active).
With `C[C@H]1CN([C@@H](C)CO)C(=O)c2cc(NC(=O)Nc3cccc4ccccc34)ccc2O[C@H]1CN(C)Cc1ccc(-c2ccccc2)cc1` the AC50 [5] was 5.22 µM (active).
With `C[C@H](CO)N1C[C@H](C)[C@@H](CN(C)S(=O)(=O)c2ccccc2)Oc2c(NC(=O)Nc3ccccc3)cccc2C1=O` the AC50 [5] was 20 µM (inactive).
With `C[C@@H]1CN([C@@H](C)CO)C(=O)c2cccc(NC(=O)Nc3ccccc3)c2O[C@H]1CN(C)Cc1ccc(C(=O)Nc2ccccc2N)cc1` the AC50 [5] was 0.869 µM (active).
For `COc1ccc2occ(C(=O)c3coc4ccc(O)c(CN(C)C)c34)c2c1`, the IC50 (H9c2) was > 79 µM (inactive).
For `C[C@H]1CN([C@@H](C)CO)C(=O)Cc2cc(N(C)C)ccc2O[C@@H]1CN(C)Cc1ccc(-c2ccccc2)cc1`, the AC50 [5] was 2.21 µM (active).
With `Cc1ccc(S(=O)(=O)Nc2ccc3c(c2)CC(=O)N([C@H](C)CO)C[C@@H](C)[C@@H](CN(C)Cc2ccc(Oc4ccccc4)cc2)O3)cc1` the AC50 [5] was 2.03 µM (active).
